Measurements as given in paper PMC6299220 (mBio, 2018).
≈ marks a conversion by molar mass, not a printed value. Where “and” joins values, the source holds several entries; their conditions need not be identical. Identical values can stand only once. Like-named read-outs stand apart in the source and are kept apart here.

Legend:
[1] = Mouse liver microsomal (MLM) stability; conditions: for half-life: mouse, liver microsomes
[2] = test system: M. tuberculosis H37Rv; assay: microbe, parasite or virus in culture; assay type: cell-based, Mycobacterium tuberculosis
[3] = mouse, microsomes
[4] = physchem; conditions: pH 7.4, aqueous buffer, kinetic from dmso stock
[5] = test system: mycolic acid biosynthesis in M. tuberculosis H37Rv; assay type: cell-based, Mycobacterium tuberculosis
[6] = target: KasA (Mycobacterium tuberculosis, UniProt P9WQD9); assay: Microscale thermophoresis (MST) binding assay; conditions: 49.5 nM labeled KasA
[7] = in vitro; assay type: cell-based; conditions: mouse
From the text: (§1) Supplement mbo006184230st8.docx, table 1: Table S3. Profile of DG167 | column: value

[8] = target: hERG (Homo sapiens, UniProt Q12809); assay: hERG inhibition
[9] = Chemical stability at pH 2, 7, 9; assay type: physicochemical; conditions: for half-life: buffer, read-out: Chemical stability t1/2
From the text: as §1

[10] = test system: iniBAC promoter (PiniBAC); assay type: cell-based, M. bovis BCG
[11] = in vitro; conditions: mouse, microsomes
[12] = test system: M. smegmatis; assay: MIC, MABA; assay type: cell-based; conditions: Mycolicibacterium smegmatis; M. smegmatis wild-type
[13] = assay type: in vitro ADME
From the text: as §1

[14] = not given; remark: listed apart in the source
[15] = test system: M. marinum; assay: MIC, MABA; assay type: cell-based; conditions: Mycobacterium marinum; M. marinum ATCC wild type
[16] = target: CYP2D6 (Homo sapiens, UniProt P10635); assay: biochemical; assay type: in vitro ADME
From the text: as §1

[17] = target: CYP1A2 (Homo sapiens, UniProt P05177); assay: biochemical; assay type: in vitro ADME
From the text: as §1

[18] = target: CYP3A4 (Homo sapiens, UniProt P08684); assay: biochemical; assay type: in vitro ADME
From the text: as §1

[19] = target: CYP2C9 (Homo sapiens, UniProt P11712); assay: biochemical; assay type: in vitro ADME
From the text: as §1

[20] = in vitro; assay type: in vitro ADME; conditions: for fraction unbound: plasma
From the text: as §1

[21] = in vivo; conditions: female, BALB/c
Experimental: All animal experiments were approved by the Institutional Animal Care and Use Committee of the New Jersey Medical School, Rutgers University, and were conducted in compliance with their guidelines. […] Sequential bleeds were collected at 0.25, 0.5, 1, 3, 5, and 8 h postdose via the tail snip method. Blood (50 µl) was collected in capillary microvette EDTA blood tubes and kept on ice prior to centrifugation at 1,500 × g for 5 min. The supernatant (plasma) was transferred into a 96-well plate and stored at −80°C.
Chromatography was performed with an Agilent Zorbax SB-C8 column (2.1 by 30 mm; particle size, 3.5 µm) using a reverse-phase gradient elution. A mixture of 0.1% formic acid–Milli-Q deionized water was used for the aqueous mobile phase and 0.1% formic acid–acetonitrile (ACN) for the organic mobile phase. […] Extracts were subjected to vortex mixing for 5 min and centrifuged at 4,000 rpm for 5 min. The supernatants were analyzed by LC-MS. Verapamil IS was sourced from Sigma-Aldrich.

[22] = test system: M. tuberculosis 100-day-old bacilli (persisters); assay type: cell-based, Mycobacterium tuberculosis
[23] = test system: M. fortuitum; assay: MIC, MABA; assay type: cell-based; conditions: Mycolicibacterium fortuitum; M. fortuitum ATCC wild type
[24] = target: CYP2C19 (Homo sapiens, UniProt P33261); assay: Cytochrome P450 inhibition; assay type: in vitro ADME; conditions: read-out: Cytochrome P450 IC50, 2C19
[25] = in vitro; conditions: African green monkey
[26] = test system: M. tuberculosis H37Rv gene expression; assay type: cell-based, Mycobacterium tuberculosis
[27] = test system: M. avium; assay: MIC, MABA; assay type: cell-based; conditions: Mycobacterium avium; M. avium ATCC wild type
[28] = in vitro; conditions: human
[29] = test system: M. abscessus; assay: MIC, MABA; assay type: cell-based; conditions: Mycobacteroides abscessus; M. abscessus ATCC wild type
[30] = test system: M. tuberculosis 210; assay: microbe, parasite or virus in culture; assay type: cell-based; conditions: Mycobacterium tuberculosis
[31] = test system: M. tuberculosis TDR692; assay: microbe, parasite or virus in culture; assay type: cell-based; conditions: Mycobacterium tuberculosis
[32] = test system: M. bovis BCG; assay: microbe, parasite or virus in culture; assay type: cell-based; conditions: Mycobacterium tuberculosis variant bovis BCG
[33] = test system: M. tuberculosis; conditions: cited from earlier work
[34] = MLM stability t1/2 without NADPH, without NADPH

Chain of KasA (P9WQD9 whole entry): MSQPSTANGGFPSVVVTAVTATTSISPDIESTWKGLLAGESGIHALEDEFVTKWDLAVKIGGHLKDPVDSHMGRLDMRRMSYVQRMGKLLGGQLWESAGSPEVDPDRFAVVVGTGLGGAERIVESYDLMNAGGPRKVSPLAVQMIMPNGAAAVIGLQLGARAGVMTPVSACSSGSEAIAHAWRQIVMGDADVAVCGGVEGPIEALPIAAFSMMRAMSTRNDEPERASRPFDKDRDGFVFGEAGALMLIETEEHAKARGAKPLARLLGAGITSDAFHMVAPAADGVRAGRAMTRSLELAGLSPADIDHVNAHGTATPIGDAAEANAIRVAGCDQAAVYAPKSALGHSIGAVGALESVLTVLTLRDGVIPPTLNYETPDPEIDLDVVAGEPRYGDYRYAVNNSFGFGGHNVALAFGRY
Chain of CYP2C19 (P33261 whole entry, species assumed): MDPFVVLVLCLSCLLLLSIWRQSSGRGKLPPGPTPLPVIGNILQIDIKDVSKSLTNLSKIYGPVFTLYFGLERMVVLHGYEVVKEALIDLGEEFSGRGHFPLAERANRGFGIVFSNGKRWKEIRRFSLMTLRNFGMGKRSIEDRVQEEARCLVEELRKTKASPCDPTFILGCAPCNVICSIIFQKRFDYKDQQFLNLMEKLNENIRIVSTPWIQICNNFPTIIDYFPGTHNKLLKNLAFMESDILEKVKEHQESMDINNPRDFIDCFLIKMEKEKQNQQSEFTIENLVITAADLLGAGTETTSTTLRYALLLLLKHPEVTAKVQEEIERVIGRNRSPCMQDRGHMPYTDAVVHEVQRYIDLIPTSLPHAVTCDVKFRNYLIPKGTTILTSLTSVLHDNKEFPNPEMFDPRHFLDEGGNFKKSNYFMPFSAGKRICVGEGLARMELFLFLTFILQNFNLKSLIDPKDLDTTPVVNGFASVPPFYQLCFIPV
Chain of hERG (Q12809 whole entry): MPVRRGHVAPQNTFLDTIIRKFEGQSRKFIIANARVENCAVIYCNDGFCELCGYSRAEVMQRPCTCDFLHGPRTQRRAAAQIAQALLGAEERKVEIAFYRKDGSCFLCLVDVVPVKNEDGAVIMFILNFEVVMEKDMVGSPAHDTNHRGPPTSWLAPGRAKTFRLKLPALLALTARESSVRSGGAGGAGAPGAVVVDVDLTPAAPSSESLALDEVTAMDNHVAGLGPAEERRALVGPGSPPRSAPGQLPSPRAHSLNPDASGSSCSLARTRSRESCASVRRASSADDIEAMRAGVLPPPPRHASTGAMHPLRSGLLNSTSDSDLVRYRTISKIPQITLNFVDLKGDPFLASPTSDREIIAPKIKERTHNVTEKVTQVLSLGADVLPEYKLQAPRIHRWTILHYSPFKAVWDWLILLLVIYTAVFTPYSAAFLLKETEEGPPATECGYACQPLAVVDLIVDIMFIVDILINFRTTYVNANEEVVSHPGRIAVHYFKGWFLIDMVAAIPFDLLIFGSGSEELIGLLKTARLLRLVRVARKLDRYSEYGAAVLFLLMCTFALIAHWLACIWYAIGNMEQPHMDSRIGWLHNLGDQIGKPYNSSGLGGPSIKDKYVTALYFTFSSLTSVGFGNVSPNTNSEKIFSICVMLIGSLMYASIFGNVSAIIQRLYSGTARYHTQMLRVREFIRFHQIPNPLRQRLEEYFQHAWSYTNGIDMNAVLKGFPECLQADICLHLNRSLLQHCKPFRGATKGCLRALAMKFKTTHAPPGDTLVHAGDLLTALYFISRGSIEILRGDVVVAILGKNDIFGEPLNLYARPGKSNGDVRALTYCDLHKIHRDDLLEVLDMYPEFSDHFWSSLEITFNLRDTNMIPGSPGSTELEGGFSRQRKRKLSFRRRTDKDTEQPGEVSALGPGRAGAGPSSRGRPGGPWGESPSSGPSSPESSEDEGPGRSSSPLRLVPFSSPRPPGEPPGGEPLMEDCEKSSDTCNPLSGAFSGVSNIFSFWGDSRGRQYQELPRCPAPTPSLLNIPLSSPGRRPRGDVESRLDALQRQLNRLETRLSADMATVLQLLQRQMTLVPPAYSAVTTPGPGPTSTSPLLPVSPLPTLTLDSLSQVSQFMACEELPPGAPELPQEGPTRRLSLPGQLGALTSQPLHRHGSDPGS
Chain of CYP1A2 (P05177 whole entry): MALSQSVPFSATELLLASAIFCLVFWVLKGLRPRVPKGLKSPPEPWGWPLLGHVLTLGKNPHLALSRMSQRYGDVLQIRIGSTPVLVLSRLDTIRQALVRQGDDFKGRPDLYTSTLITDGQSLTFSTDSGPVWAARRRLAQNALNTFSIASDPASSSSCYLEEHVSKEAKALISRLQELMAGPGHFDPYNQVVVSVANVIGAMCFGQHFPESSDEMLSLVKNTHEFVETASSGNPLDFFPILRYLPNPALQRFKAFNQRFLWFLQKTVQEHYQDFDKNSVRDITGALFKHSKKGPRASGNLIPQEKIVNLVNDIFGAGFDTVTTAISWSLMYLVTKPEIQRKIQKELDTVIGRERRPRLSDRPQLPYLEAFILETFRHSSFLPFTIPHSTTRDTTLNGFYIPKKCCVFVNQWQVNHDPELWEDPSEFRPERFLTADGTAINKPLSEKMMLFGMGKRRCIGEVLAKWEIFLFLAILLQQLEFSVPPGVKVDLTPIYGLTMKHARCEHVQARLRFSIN
Chain of CYP3A4 (P08684 whole entry): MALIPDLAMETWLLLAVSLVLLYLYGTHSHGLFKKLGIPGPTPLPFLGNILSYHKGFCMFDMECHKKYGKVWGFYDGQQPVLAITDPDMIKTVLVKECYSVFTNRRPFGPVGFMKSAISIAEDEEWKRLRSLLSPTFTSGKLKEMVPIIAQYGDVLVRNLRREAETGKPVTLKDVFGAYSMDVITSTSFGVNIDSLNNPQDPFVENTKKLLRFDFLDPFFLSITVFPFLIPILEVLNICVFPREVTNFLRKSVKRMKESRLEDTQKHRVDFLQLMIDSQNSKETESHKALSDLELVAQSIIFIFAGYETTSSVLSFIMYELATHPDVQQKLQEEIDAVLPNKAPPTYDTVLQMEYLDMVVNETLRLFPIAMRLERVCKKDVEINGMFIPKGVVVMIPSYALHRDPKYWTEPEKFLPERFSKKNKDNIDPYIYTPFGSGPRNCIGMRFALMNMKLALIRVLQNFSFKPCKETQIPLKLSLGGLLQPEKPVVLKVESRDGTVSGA
Chain of CYP2C9 (P11712 whole entry): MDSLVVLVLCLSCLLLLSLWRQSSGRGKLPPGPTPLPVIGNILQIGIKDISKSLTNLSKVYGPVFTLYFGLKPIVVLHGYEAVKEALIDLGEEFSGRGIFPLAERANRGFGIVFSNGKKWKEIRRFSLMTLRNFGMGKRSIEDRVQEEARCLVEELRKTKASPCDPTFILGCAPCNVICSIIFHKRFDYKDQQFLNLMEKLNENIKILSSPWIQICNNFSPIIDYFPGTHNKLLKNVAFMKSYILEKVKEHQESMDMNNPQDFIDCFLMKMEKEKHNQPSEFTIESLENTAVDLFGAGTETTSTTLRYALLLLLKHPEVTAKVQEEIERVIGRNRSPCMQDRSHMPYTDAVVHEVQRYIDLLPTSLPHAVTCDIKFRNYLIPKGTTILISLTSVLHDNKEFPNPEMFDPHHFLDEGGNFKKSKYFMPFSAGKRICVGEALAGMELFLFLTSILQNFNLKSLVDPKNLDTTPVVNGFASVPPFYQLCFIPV
Chain of CYP2D6 (P10635 whole entry): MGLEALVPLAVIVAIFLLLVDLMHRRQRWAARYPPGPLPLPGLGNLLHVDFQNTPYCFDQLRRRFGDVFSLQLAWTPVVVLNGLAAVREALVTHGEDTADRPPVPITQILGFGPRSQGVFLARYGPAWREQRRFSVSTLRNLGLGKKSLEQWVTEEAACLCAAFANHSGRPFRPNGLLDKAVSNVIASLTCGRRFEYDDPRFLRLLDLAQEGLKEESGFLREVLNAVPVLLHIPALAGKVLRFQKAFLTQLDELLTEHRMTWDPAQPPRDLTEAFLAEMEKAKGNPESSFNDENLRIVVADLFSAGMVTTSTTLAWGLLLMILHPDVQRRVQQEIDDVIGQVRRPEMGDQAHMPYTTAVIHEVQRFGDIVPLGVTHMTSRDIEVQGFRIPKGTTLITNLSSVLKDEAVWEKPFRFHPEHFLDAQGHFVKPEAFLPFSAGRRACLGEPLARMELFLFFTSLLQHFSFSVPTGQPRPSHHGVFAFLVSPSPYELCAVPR

## 1-Methyl-N-pentyl-1H-indazol-6-amine [5f]
[1]; Table 3
  MLM stability clint: 56.7 μl/mi/mg protein
[1]; with NADPH
  MLM stability t1/2: 12.2 min
[1]; without NADPH
  MLM stability t1/2 without NADPH: > 3,060 min
other
  Kinetic solubility in pH 7.4 PBS: >500 µM
[2]
  MIC: >100 µM

## CCCCS(=O)(=O)Nc1ccc2cn[nH]c2c1 [5a-2, N-(1H-Indazol-6-yl)butane-1-sulfonamide]
[3]
  MLM stability clint: 68.7 μl/mi/mg protein
[4]
  solubility kinetic: > 600 µM
[5]
  inhibition of mycolic acid biosynthesis: did not show any inhibition
[1]; MLM stability t1/2, with NADPH
  half-life: 12.2 min
[1]; [34]
  half-life: > 3060 min
[6]
  EC50: 1.74 µM
[2]
  MIC: >100 µM
[2]; Mycobacterium tuberculosis, H37RV
  MIC: > 100 µM

## CCCCS(=O)(=O)Nc1ccc2cnn(C)c2c1 [DG167, N-(1-Methyl-1H-indazol-6-yl)butane-1-sulfonamide]
[7]
  CC50: 94 µM
[8]
  IC50: > 20 µM
[9]; pH 2
  half-life: 192 h
[9]; pH 9
  half-life: 57.8 h
[9]; pH 7
  Chemical stability t1/2: Stable
[10]
  induction of iniBAC promoter: approximately 12 fold
[3]
  MLM stability clint: 68.9 μl/mi/mg protein
  MLM-generated metabolites: A demethylated species, corresponding to loss of the 1-methyl group (Fig. S5A), predominated among the metabolites
[4]
  solubility kinetic: 324 µM (≈ 86.6 µg/mL)
[5]
  inhibition of mycolic acid biosynthesis: dose-dependent inhibition
[11]
  half-life: 10.1 min
  microsomal CLint: 68.9 µL/min/mg
[11]; [34]
  half-life: > 300 min
[12]
  MIC: > 50 µM
[13]
  Human plasma stability at 5 h: 109%
  Mouse plasma stability @ 5 h: 99.1%
[14]; mice, 50 and 100 mg/kg, monitored for 8 h
  tolerability, dose escalation: well tolerated
[14]; mice, 5 days, DG167 50 and 100 mg/kg, combination DG167 100 mg/kg with INH 25 mg/kg
  dose tolerability for 5 days: did not show any behavioral changes or weight loss
[14]; mouse, in vivo
  tolerability, dose escalation: heavy breathing, hunched posture, and decreased activity
[15]
  MIC: > 50 µM
[16]
  IC50: > 50 µM
[17]
  IC50: > 50 µM
[18]
  IC50: > 50 µM
[19]
  IC50: > 50 µM
[20]; human
  recovery: 92%
  fraction unbound: 0.081
[20]; mouse
  recovery: 90.7%
  fraction unbound: 0.21
[21]; mouse, in vivo, iv, 5 mg/kg
  AUC(0-t): 1750 ng·h/mL
  half-life: 19.8 min
[21]; mouse, in vivo, po, 25 mg/kg
  AUC(0-t): 8080 ng·h/mL
[21]; plasma, po, 25 mg/kg
  bioavailability: 92.3%
[22]
  killing of persister cultures: minimal killing
[23]
  MIC: > 50 µM
[6]
  EC50: 0.131 ± 0.0182 µM
[24]
  IC50: 12 µM and 12.4 µM
[25]
  CC50: 23 µM
[26]
  expression of the kasA, kasB, and acpM genes and the iniBAC operon: strongly induced expression
[27]
  MIC: > 50 µM
[28]; Caco-2, Caco-2 Permeability PA-B
  Papp: 71.8 ×10⁻⁶ cm/s
[28]; Caco-2, Caco-2 Permeability PB-A
  Papp: 45.6 ×10⁻⁶ cm/s
[29]
  MIC: > 50 µM

## NNC(=O)c1ccncc1 [INH, isoniazid]
[30]
  MIC: 0.4 µM (≈ 0.0549 µg/mL)
[12]
  MIC: > 12 µM
[15]
  MIC: > 12 µM
[31]
  MIC: 0.2 µM (≈ 0.0274 µg/mL)
[22]
  killing of persister cultures: minimal killing
[23]
  MIC: > 12 µM
[26]
  Fold change, Rv0885: 2.044 fold
  Fold change, Rv2706c: 2.3 fold
  Fold change, Rv3269: -2.076 fold
  Fold change, Rv3352c: 2.131 fold
  Fold change, ctpD: 2.334 fold
  Fold change, cysA3: -2.027 fold
  Fold change, fadD5: -2.2153 fold
  Fold change, fadD11: -2.252 fold
  Fold change, lprQ: 2.051 fold
  Fold change, sapM: 2.01 fold
  expression of the kasA, kasB, and acpM genes and the iniBAC operon: strongly induced expression
[27]
  MIC: > 12 µM
[32]
  MIC: 0.4 µM (≈ 0.0549 µg/mL)
[29]
  MIC: > 12 µM

## CC12C[C@@]34C=CC(=O)[C@@](C)(CCC(=O)Nc5c(O)ccc(C(=O)O)c5O)C3[C@H](CC1C4)O2 (some centres unmarked) [platensimycin]
[33]
  whole-cell activity in M. tuberculosis: 27 µM

## C=C/C(C)=C/[C@@]1(C)SC(=O)C(C)=C1O [thiolactomycin]
[33]
  whole-cell activity in M. tuberculosis: 142 µM
